Source: paper PMC9532536 (Acta Pharmaceutica Sinica. B, 2022)

Molecular target: GRP78 (78 kDa glucose-regulated protein) (Homo sapiens, UniProt P11021, K326A)
Assay: microscale thermophoresis
Assay type: binding

GRP78 (78 kDa glucose-regulated protein), sequence (P11021 19-654 K326A): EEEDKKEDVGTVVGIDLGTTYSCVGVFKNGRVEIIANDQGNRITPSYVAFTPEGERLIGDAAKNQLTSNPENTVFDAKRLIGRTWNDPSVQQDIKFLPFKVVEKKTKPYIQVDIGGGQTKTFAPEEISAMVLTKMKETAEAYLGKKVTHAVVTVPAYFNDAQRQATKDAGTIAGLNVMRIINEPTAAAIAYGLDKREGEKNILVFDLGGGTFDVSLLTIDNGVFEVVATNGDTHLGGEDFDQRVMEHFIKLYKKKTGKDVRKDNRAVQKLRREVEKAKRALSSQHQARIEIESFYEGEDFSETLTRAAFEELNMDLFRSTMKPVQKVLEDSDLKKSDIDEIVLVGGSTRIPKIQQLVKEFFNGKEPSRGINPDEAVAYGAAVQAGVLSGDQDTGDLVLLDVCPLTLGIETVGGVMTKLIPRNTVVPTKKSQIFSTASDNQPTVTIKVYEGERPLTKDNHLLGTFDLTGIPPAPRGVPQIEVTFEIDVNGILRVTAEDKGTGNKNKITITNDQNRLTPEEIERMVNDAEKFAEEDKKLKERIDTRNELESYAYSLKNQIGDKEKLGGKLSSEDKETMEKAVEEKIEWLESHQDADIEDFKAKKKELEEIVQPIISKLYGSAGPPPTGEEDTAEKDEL

CC(=O)OC(C)(C)/C=C/C(=O)[C@](C)(O)[C@H]1[C@H](O)C[C@@]2(C)[C@@H]3CC=C4[C@@H](C[C@H](O)C(=O)C4(C)C)[C@]3(C)C(=O)C[C@]12C [CuB, cucurbitacin B]
Kd: 25.4 µM
